Results reported in ChEMBL document CHEMBL1146778, “The synthesis and antimicrobial evaluation of a new series of isoxazolinyl oxazolidinones” (2004).
Converted amounts (≈) assume the structure as drawn.

Experiments:
Assay type in all cases: functional
Enterococcus faecium = assay: Minimum inhibitory concentration (MIC) against Enterococcus faecium OC 3312 (VRE)
Escherichia coli [1] = assay: Minimum inhibitory concentration (MIC) against Escherichia coli OC 2530 (HS)
Escherichia coli [2] = assay: Minimum inhibitory concentration (MIC) against Escherichia coli OC 2605
Enterococcus faecalis = assay: Minimum inhibitory concentration (MIC) against Enterococcus faecalis ATCC 29212
Mus musculus = assay: Tested for the dose to protect the mice from infection with Staphylococcus aureus OC 4172, by oral administration
Staphylococcus aureus [3] = assay: Tested for the dose to protect the mice from infection with Staphylococcus aureus OC 4172, by subcutaneous administration; details: sc
Staphylococcus aureus [4] = assay: Minimum inhibitory concentration (MIC) against Staphylococcus aureus OC 4172 in the absence of mouse serum
Staphylococcus aureus [5] = assay: Minimum inhibitory concentration (MIC) against methicillin-resistant Staphylococcus aureus (MRSA) OC2878
Staphylococcus aureus [6] = assay: Minimum inhibitory concentration (MIC) against Staphylococcus aureus OC 4172 in the presence of 50% mouse serum

CC(=O)NC[C@H]1CN(c2ccc(C3=NOC(C(N)=O)C3)c(F)c2)C(=O)O1 (stereo partly specified)
MIC (Enterococcus faecium): 4 µg/mL (≈ 11 µM)
MIC (Escherichia coli [1]): 32 µg/mL (≈ 87.8 µM)
MIC (Escherichia coli [2]): > 64 µg/mL
MIC (Enterococcus faecalis): 4 µg/mL (≈ 11 µM)
ED50 (Mus musculus): 40 mg/kg/day
ED50 (Staphylococcus aureus [3]): 11.8 mg/kg/day
MIC (Staphylococcus aureus [4]): 2 µg/mL (≈ 5.49 µM)
MIC (Staphylococcus aureus [5]): 2 µg/mL (≈ 5.49 µM)
MIC (Staphylococcus aureus [6]): 1 µg/mL

COC(=O)c1cc(-c2ccc(N3C[C@H](CNC(C)=O)OC3=O)cc2F)no1
MIC (Enterococcus faecium): 8 µg/mL (≈ 21.2 µM)
MIC (Escherichia coli [1]): 64 µg/mL (≈ 170 µM)
MIC (Escherichia coli [2]): > 128 µg/mL
MIC (Enterococcus faecalis): 16 µg/mL (≈ 42.4 µM)
MIC (Staphylococcus aureus [4]): 8 µg/mL (≈ 21.2 µM)
MIC (Staphylococcus aureus [5]): 4 µg/mL (≈ 10.6 µM)
MIC (Staphylococcus aureus [6]): > 128 µg/mL

CC(=O)NC[C@H]1CN(c2ccc(C3=NOC(CN(C)C)C3)c(F)c2)C(=O)O1 (stereo partly specified)
MIC (Enterococcus faecium): 8 µg/mL (≈ 21.1 µM)
MIC (Escherichia coli [1]): 64 µg/mL (≈ 169 µM)
MIC (Escherichia coli [2]): 128 µg/mL (≈ 338 µM)
MIC (Enterococcus faecalis): 8 µg/mL (≈ 21.1 µM)
MIC (Staphylococcus aureus [4]): 8 µg/mL (≈ 21.1 µM)
MIC (Staphylococcus aureus [5]): 8 µg/mL (≈ 21.1 µM)
MIC (Staphylococcus aureus [6]): 2 µg/mL

COCCNC(=O)C1CC(c2ccc(N3C[C@H](CNC(C)=O)OC3=O)cc2F)=NO1 (stereo partly specified)
MIC (Enterococcus faecium): 16 µg/mL (≈ 37.9 µM)
MIC (Escherichia coli [1]): 64 µg/mL (≈ 152 µM)
MIC (Escherichia coli [2]): > 64 µg/mL
MIC (Enterococcus faecalis): 16 µg/mL (≈ 37.9 µM)
MIC (Staphylococcus aureus [4]): 8 µg/mL (≈ 18.9 µM)
MIC (Staphylococcus aureus [5]): 16 µg/mL (≈ 37.9 µM)
MIC (Staphylococcus aureus [6]): 8 µg/mL

CC(=O)NC[C@H]1CN(c2ccc(C3=NOC(c4ccncc4)C3)c(F)c2)C(=O)O1 (stereo partly specified)
MIC (Enterococcus faecium): 4 µg/mL (≈ 10 µM)
MIC (Escherichia coli [1]): 32 µg/mL (≈ 80.3 µM)
MIC (Escherichia coli [2]): > 64 µg/mL
MIC (Enterococcus faecalis): 4 µg/mL (≈ 10 µM)
MIC (Staphylococcus aureus [4]): 4 µg/mL (≈ 10 µM)
MIC (Staphylococcus aureus [5]): 1 µg/mL (≈ 2.51 µM)
MIC (Staphylococcus aureus [6]): 4 µg/mL

CC(=O)NC[C@H]1CN(c2ccc(C3=NOC(C(=O)N4CCOCC4)C3)c(F)c2)C(=O)O1 (stereo partly specified)
MIC (Enterococcus faecium): 8 µg/mL (≈ 18.4 µM)
MIC (Escherichia coli [1]): 32 µg/mL (≈ 73.7 µM)
MIC (Escherichia coli [2]): > 128 µg/mL
MIC (Enterococcus faecalis): 8 µg/mL (≈ 18.4 µM)
MIC (Staphylococcus aureus [4]): 8 µg/mL (≈ 18.4 µM)
MIC (Staphylococcus aureus [5]): 8 µg/mL (≈ 18.4 µM)
MIC (Staphylococcus aureus [6]): 8 µg/mL

CC(=O)NC[C@H]1CN(c2ccc(C3=NOC(C#N)C3)c(F)c2)C(=O)O1 (stereo partly specified)
MIC (Enterococcus faecium): 2 µg/mL (≈ 5.78 µM)
MIC (Escherichia coli [1]): 16 µg/mL (≈ 46.2 µM)
MIC (Escherichia coli [2]): 128 µg/mL (≈ 370 µM)
MIC (Enterococcus faecalis): 2 µg/mL (≈ 5.78 µM)
ED50 (Mus musculus): 22.1 mg/kg/day
ED50 (Staphylococcus aureus [3]): 22.4 mg/kg/day
MIC (Staphylococcus aureus [4]): 2 µg/mL (≈ 5.78 µM)
MIC (Staphylococcus aureus [5]): 1 µg/mL (≈ 2.89 µM)
MIC (Staphylococcus aureus [6]): 1 µg/mL

CC(=O)NC[C@H]1CN(c2ccc(C3=NOC(c4ccccn4)C3)c(F)c2)C(=O)O1 (stereo partly specified)
MIC (Enterococcus faecium): 2 µg/mL (≈ 5.02 µM)
MIC (Escherichia coli [1]): 8 µg/mL (≈ 20.1 µM)
MIC (Escherichia coli [2]): > 64 µg/mL
MIC (Enterococcus faecalis): 2 µg/mL (≈ 5.02 µM)
ED50 (Mus musculus): 31.6 mg/kg/day
ED50 (Staphylococcus aureus [3]): 22.8 mg/kg/day
MIC (Staphylococcus aureus [4]): 2 µg/mL (≈ 5.02 µM)
MIC (Staphylococcus aureus [5]): 2 µg/mL (≈ 5.02 µM)
MIC (Staphylococcus aureus [6]): 4 µg/mL

CC(=O)NC[C@H]1CN(c2ccc(C3=NOC(CN4CCN(C(C)=O)CC4)C3)c(F)c2)C(=O)O1 (stereo partly specified)
MIC (Enterococcus faecium): 16 µg/mL (≈ 34.7 µM)
MIC (Escherichia coli [1]): 16 µg/mL (≈ 34.7 µM)
MIC (Escherichia coli [2]): > 32 µg/mL
MIC (Enterococcus faecalis): 8 µg/mL (≈ 17.3 µM)
MIC (Staphylococcus aureus [4]): 8 µg/mL (≈ 17.3 µM)
MIC (Staphylococcus aureus [5]): 8 µg/mL (≈ 17.3 µM)
MIC (Staphylococcus aureus [6]): 8 µg/mL

CNC(=O)C1CC(c2ccc(N3C[C@H](CNC(C)=O)OC3=O)cc2F)=NO1 (stereo partly specified)
MIC (Enterococcus faecium): 4 µg/mL (≈ 10.6 µM)
MIC (Escherichia coli [1]): 32 µg/mL (≈ 84.6 µM)
MIC (Escherichia coli [2]): > 128 µg/mL
MIC (Enterococcus faecalis): 4 µg/mL (≈ 10.6 µM)
MIC (Staphylococcus aureus [4]): 4 µg/mL (≈ 10.6 µM)
MIC (Staphylococcus aureus [5]): 4 µg/mL (≈ 10.6 µM)
MIC (Staphylococcus aureus [6]): 4 µg/mL

CC(=O)NC[C@H]1CN(c2ccc(-c3cc(-c4ccccn4)on3)c(F)c2)C(=O)O1
MIC (Enterococcus faecium): 4 µg/mL (≈ 10.1 µM)
MIC (Escherichia coli [1]): 64 µg/mL (≈ 161 µM)
MIC (Escherichia coli [2]): > 128 µg/mL
MIC (Enterococcus faecalis): 4 µg/mL (≈ 10.1 µM)
ED50 (Staphylococcus aureus [3]): > 40 mg/kg/day
MIC (Staphylococcus aureus [4]): 4 µg/mL (≈ 10.1 µM)
MIC (Staphylococcus aureus [5]): 2 µg/mL (≈ 5.05 µM)
MIC (Staphylococcus aureus [6]): 8 µg/mL

CC(=O)NCC1CC(c2ccc(N3C[C@H](CNC(C)=O)OC3=O)cc2F)=NO1 (stereo partly specified)
MIC (Enterococcus faecium): 16 µg/mL (≈ 40.8 µM)
MIC (Escherichia coli [1]): 64 µg/mL (≈ 163 µM)
MIC (Escherichia coli [2]): > 64 µg/mL
MIC (Enterococcus faecalis): 16 µg/mL (≈ 40.8 µM)
MIC (Staphylococcus aureus [4]): 8 µg/mL (≈ 20.4 µM)
MIC (Staphylococcus aureus [5]): 16 µg/mL (≈ 40.8 µM)
MIC (Staphylococcus aureus [6]): 8 µg/mL

CCOC(=O)C1CC(c2ccc(N3C[C@H](CNC(C)=O)OC3=O)cc2F)=NO1 (stereo partly specified)
MIC (Enterococcus faecium): 8 µg/mL (≈ 20.3 µM)
MIC (Escherichia coli [1]): 128 µg/mL (≈ 325 µM)
MIC (Escherichia coli [2]): > 128 µg/mL
MIC (Enterococcus faecalis): 16 µg/mL (≈ 40.7 µM)
MIC (Staphylococcus aureus [4]): 8 µg/mL (≈ 20.3 µM)
MIC (Staphylococcus aureus [5]): 4 µg/mL (≈ 10.2 µM)
MIC (Staphylococcus aureus [6]): > 128 µg/mL

CC(=O)NC[C@H]1CN(c2ccc(C3=NOC(Cn4ccnc4)C3)c(F)c2)C(=O)O1 (stereo partly specified)
MIC (Enterococcus faecium): > 32 µg/mL
MIC (Escherichia coli [1]): > 32 µg/mL
MIC (Escherichia coli [2]): > 32 µg/mL
MIC (Enterococcus faecalis): > 32 µg/mL
MIC (Staphylococcus aureus [4]): > 32 µg/mL
MIC (Staphylococcus aureus [6]): > 32 µg/mL

CC(=O)NC[C@H]1CN(c2ccc(C3=NOC(CN4CCOCC4)C3)c(F)c2)C(=O)O1 (stereo partly specified)
MIC (Enterococcus faecium): 32 µg/mL (≈ 76.1 µM)
MIC (Escherichia coli [1]): 32 µg/mL (≈ 76.1 µM)
MIC (Escherichia coli [2]): 64 µg/mL (≈ 152 µM)
MIC (Enterococcus faecalis): 16 µg/mL (≈ 38.1 µM)
MIC (Staphylococcus aureus [4]): 16 µg/mL (≈ 38.1 µM)
MIC (Staphylococcus aureus [5]): 8 µg/mL (≈ 19 µM)
MIC (Staphylococcus aureus [6]): 16 µg/mL

CC(=O)NC[C@H]1CN(c2ccc(N3CCOCC3)c(F)c2)C(=O)O1 [LINEZOLID]
MIC (Enterococcus faecium): 4 µg/mL (≈ 11.9 µM)
MIC (Escherichia coli [1]): 16 µg/mL (≈ 47.4 µM)
MIC (Escherichia coli [2]): > 32 µg/mL
ED50 (Mus musculus): 6.8 mg/kg/day
ED50 (Staphylococcus aureus [3]): 5.4 mg/kg/day
